Read-outs that look alike come from different tables or passages of the source. Marks after values point to notes of the source that are not given here. Peptide text beside a SMILES is read from it. Where only a bound is given, the exact number is not on record here.

Results on nine compounds are retold here after patent US20190315823A1, “SMALL CATIONIC ANTI-BIOFILM AND IDR PEPTIDES” (priority 2013, published 2019).

Holding throughout (type): cell-based
For one assay, the system named is P. aeruginosa biofilm. How it is done: (§1) Methods of assessment of anti-biofilm activity—Biofilm formation was initially analyzed using a static abiotic solid surface assay as described elsewhere (de la Fuente-Nunez et al., 2012). […] Planktonic cells were removed, biofilm cells adhering to the side of the tubes were stained with crystal violet, and absorbance at 595 nm was measured using a microtiter plate reader (Bio-Tek Instruments Inc., United States). Some peptides were screened against two Gram negative organisms, P. aeruginosa and K. pneumoniae using a Bioflux apparatus (AutoMate Scientific, Berkeley, Calif.; http://www.autom8.com/bioflux_biofilm.html), which allows for the high-throughput, real-time analysis of biofilms.

Another assay deals with S. aureus biofilm. How it is done:
as §1

For assay [1], the system named is human peripheral blood mononuclear cells (MCP-1). Briefly: SPOT-synthesized derivative screen: production of chemokine MCP-1. The settings on record: Table 12A, No LPS; for MCP1: background subtracted (21.3 pg/ml). The essentials:
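PBMC from heparinized healthy-donor venous blood, Ficoll-separated, cultured at 0.75 to 1×10^6 cells/ml, 37 °C, 5% CO2, under the treatment regimens. MCP-1 in cell-free supernatants measured by capture ELISA.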

The subject of assay [2] is LPS-stimulated human peripheral blood mononuclear cells (IL1-β). The settings on record: Table 12A, cells stimulated with 10 ng/ml LPS; for Fold change in IL1β relative to no peptide LPS stimulated cells: 1002-2013 compared to LPS control of 889 pg/ml.
[3] abbreviates: concentration that reduced biofilm growth by 50%.
[4] abbreviates: LPS alone 984 pg/ml, starred values (1002-2013) determined separately, LPS alone 889 pg/ml.

For `CC[C@H](C)[C@H](NC(=O)[C@H](CCCNC(=N)N)NC(=O)[C@@H](NC(=O)[C@H](CCCNC(=N)N)NC(=O)[C@@H](NC(=O)[C@@H](NC(=O)[C@H](CC(C)C)NC(=O)[C@H](CCCNC(=N)N)NC(=O)[C@@H](N)C(C)C)[C@@H](C)CC)C(C)C)C(C)C)C(=O)N[C@@H](Cc1c[nH]c2ccccc12)C(=O)N[C@@H](CCCNC(=N)N)C(=O)N[C@@H](CCCNC(=N)N)C(N)=O` [Peptide 2005] (H-VRLIVRVRIWRR-NH2; N-terminus assumed), the “MBIC50 P. aeruginosa” value in the assay with P. aeruginosa biofilm (setting [3]) was 2.5 µg/mL. The “MBIC50 S. aureus” value in the assay with S. aureus biofilm (setting [3]) turned out to be 10 µg/mL. Moreover, in assay [1], the “Fold increase in MCP1 cf. untreated cells” value (“Fold increase” for short) is on record as 837 and the “MCP1” value came out at 17826 pg/mL. Also, the “Fold change in IL1β relative to no peptide LPS stimulated cells” value in assay [2] came to 0.10. In assay [2] (setting [4]), the “IL1β Production” value stood at 101 pg/mL.

In the case of `CC[C@H](C)[C@H](NC(=O)[C@H](CCCNC(=N)N)NC(=O)[C@@H](NC(=O)[C@H](CCCCN)NC(=O)[C@@H](NC(=O)[C@@H](NC(=O)[C@H](Cc1c[nH]c2ccccc12)NC(=O)[C@H](CCCNC(=N)N)NC(=O)[C@@H](N)CCCNC(=N)N)[C@@H](C)CC)C(C)C)C(C)C)C(=O)N[C@@H](CCCNC(=N)N)C(=O)N[C@@H](CCCNC(=N)N)C(=O)N[C@@H](CCCNC(=N)N)C(N)=O` [Peptide 2008] (H-RRWIVKVRIRRR-NH2; N-terminus assumed), in the assay with P. aeruginosa biofilm (biofilm), the “MBIC50 P. aeruginosa” value is 10 µg/mL. Also, in the assay with S. aureus biofilm (biofilm), the “MBIC50 S. aureus” value was determined as 10 µg/mL. Moreover, in assay [1], the “Fold increase” value was 2146 and the “MCP1” value came out at 45524 pg/mL. The “Fold change in IL1β relative to no peptide LPS stimulated cells” value in assay [2] is on record as 0.25. Further, the “IL1β Production” value in assay [2] (setting [4]) is 250 pg/mL.

In the case of `CC[C@H](C)[C@H](NC(=O)[C@H](CCCNC(=N)N)NC(=O)[C@@H](NC(=O)[C@H](CCCCN)NC(=O)[C@@H](NC(=O)[C@@H](NC(=O)[C@@H](NC(=O)[C@H](CCCNC(=N)N)NC(=O)[C@@H](N)C(C)C)C(C)C)[C@@H](C)CC)C(C)C)C(C)C)C(=O)N[C@@H](CCCNC(=N)N)C(=O)N[C@@H](CCCNC(=N)N)C(=O)N[C@@H](CCCNC(=N)N)C(N)=O` [Peptide 2004] (H-VRVIVKVRIRRR-NH2; N-terminus assumed), in the assay with P. aeruginosa biofilm (setting [3]), the “MBIC50 P. aeruginosa” value came out at 2.5 µg/mL. Besides, in the assay on S. aureus biofilm (setting [3]), the “MBIC50 S. aureus” value amounted to 20 µg/mL. Further, in assay [1], the “Fold increase” value turned out to be 340 and the “MCP1” value stood at 7226 pg/mL. For the same compound, the “Fold change in IL1β relative to no peptide LPS stimulated cells” value in assay [2] is 0.56. Besides, the “IL1β Production” value in assay [2] (setting [4]) stood at 549 pg/mL.

`CC[C@H](C)[C@H](NC(=O)[C@H](CCCNC(=N)N)NC(=O)[C@@H](NC(=O)[C@H](CCCCN)NC(=O)[C@@H](NC(=O)[C@@H](NC(=O)[C@H](Cc1c[nH]c2ccccc12)NC(=O)[C@H](CCCNC(=N)N)NC(=O)[C@@H](N)C(C)C)[C@@H](C)CC)C(C)C)C(C)C)C(=O)N[C@@H](CCCNC(=N)N)C(=O)N[C@@H](CCCNC(=N)N)C(=O)N[C@@H](CCCNC(=N)N)C(N)=O` [Peptide 2006] (H-VRWIVKVRIRRR-NH2; N-terminus assumed): in the assay on P. aeruginosa biofilm (setting [3]), the “MBIC50 P. aeruginosa” value was 20 µg/mL. Also, in the assay on S. aureus biofilm (setting [3]), the “MBIC50 S. aureus” value stood at 10 µg/mL. Also, in assay [1], the “Fold increase” value is 316 and the “MCP1” value was 6714 pg/mL. For the same compound, in assay [2], the “Fold change in IL1β relative to no peptide LPS stimulated cells” value turned out to be 0.33. Also, the “IL1β Production” value in assay [2] (setting [4]) was found to be 322 pg/mL.

As to `CC[C@H](C)[C@H](NC(=O)[C@H](CCCNC(=N)N)NC(=O)[C@@H](NC(=O)[C@H](CCCCN)NC(=O)[C@@H](NC(=O)[C@@H](NC(=O)[C@H](CC(C)C)NC(=O)[C@H](CCCNC(=N)N)NC(=O)[C@@H](N)CCCNC(=N)N)[C@@H](C)CC)C(C)C)C(C)C)C(=O)N[C@@H](Cc1c[nH]c2ccccc12)C(=O)N[C@@H](CCCNC(=N)N)C(=O)N[C@@H](CCCNC(=N)N)C(N)=O` [Peptide 2007] (H-RRLIVKVRIWRR-NH2; N-terminus assumed), the “MBIC50 P. aeruginosa” value with P. aeruginosa biofilm (biofilm) turned out to be 5 µg/mL. The “MBIC50 S. aureus” value with S. aureus biofilm (biofilm) stood at 10 µg/mL. Also, in assay [1], the “Fold increase” value turned out to be 386 and the “MCP1” value came out at 7954 pg/mL. The “Fold change in IL1β relative to no peptide LPS stimulated cells” value in assay [2] is 0.88. Further, the “IL1β Production” value in assay [2] (setting [4]) worked out at 867 pg/mL.

Turning to `CC[C@H](C)[C@H](NC(=O)[C@@H](NC(=O)[C@H](CCCCN)NC(=O)[C@@H](NC(=O)[C@H](CCCNC(=N)N)NC(=O)[C@H](CCCNC(=N)N)NC(=O)[C@@H](NC(=O)[C@H](CCCNC(=N)N)NC(=O)[C@H](CCC(N)=O)NC(=O)[C@@H](N)Cc1c[nH]c2ccccc12)C(C)C)C(C)C)C(C)C)C(=O)N[C@@H](CCCNC(=N)N)C(=O)N[C@@H](CCCCN)C(N)=O` [Peptide 2013] (H-WQRVRRVKVIRK-NH2; N-terminus assumed), the “MBIC50 P. aeruginosa” value with P. aeruginosa biofilm (biofilm) is 20 µg/mL. In addition, the “MBIC50 S. aureus” value in the assay on S. aureus biofilm (biofilm) was more than 80 µg/mL. Also, in assay [1], the “Fold increase” value amounted to 31 and the “MCP1” value was determined as 645 pg/mL. Besides, the “Fold change in IL1β relative to no peptide LPS stimulated cells” value in assay [2] was determined as 0.93. The “IL1β Production (pg/ml)” value in assay [2] (setting [4]) is listed as 830* pg/ml.

With `CC[C@H](C)[C@H](NC(=O)[C@H](CCCNC(=N)N)NC(=O)[C@@H](NC(=O)[C@H](C)NC(=O)[C@@H](NC(=O)[C@@H](NC(=O)[C@H](CC(C)C)NC(=O)[C@H](CCCNC(=N)N)NC(=O)[C@@H](N)C(C)C)[C@@H](C)CC)C(C)C)C(C)C)C(=O)N[C@@H](CCCNC(=N)N)C(=O)N[C@@H](CCCNC(=N)N)C(=O)N[C@@H](CCCNC(=N)N)C(N)=O` [Peptide 2002] (H-VRLIVAVRIRRR-NH2; N-terminus assumed), the “MBIC50 P. aeruginosa” value in the assay with P. aeruginosa biofilm (setting [3]) was 2.5 µg/mL. For the same compound, the “MBIC50 S. aureus” value in the assay on S. aureus biofilm (setting [3]) stood at 20 µg/mL. In assay [1], the “Fold increase” value was determined as 152 and the “MCP1” value came to 3215 pg/mL. For the same compound, in assay [2], the “Fold change in IL1β relative to no peptide LPS stimulated cells” value turned out to be 0.30. Besides, in assay [2] (setting [4]), the “IL1β Production” value came out at 293 pg/mL.

`CC[C@H](C)[C@H](NC(=O)[C@H](CCCNC(=N)N)NC(=O)[C@@H](NC(=O)[C@H](CCCCN)NC(=O)[C@@H](NC(=O)[C@@H](NC(=O)[C@H](CC(C)C)NC(=O)[C@H](CCCNC(=N)N)NC(=O)[C@@H](N)C(C)C)[C@@H](C)CC)C(C)C)C(C)C)C(=O)N[C@@H](CCCNC(=N)N)C(=O)N[C@@H](CCCNC(=N)N)C(=O)N[C@@H](CCCNC(=N)N)C(N)=O` [Peptide 2003] (H-VRLIVKVRIRRR-NH2; N-terminus assumed): the “MBIC50 P. aeruginosa” value with P. aeruginosa biofilm (setting [3]) came out at 2.5 µg/mL. For the same compound, the “MBIC50 S. aureus” value in the assay with S. aureus biofilm (setting [3]) worked out at 20 µg/mL. Further, in assay [1], the “Fold increase” value was found to be 509 and the “MCP1” value was found to be 10848 pg/mL. The “Fold change in IL1β relative to no peptide LPS stimulated cells” value in assay [2] is on record as 1.07. In assay [2] (setting [4]), the “IL1β Production” value was 1051 pg/mL.

In the case of `CC[C@H](C)[C@H](NC(=O)[C@H](CCCNC(=N)N)NC(=O)[C@@H](NC(=O)[C@H](CCCCN)NC(=O)[C@@H](NC(=O)[C@@H](NC(=O)[C@H](CC(C)C)NC(=O)[C@H](CCCNC(=N)N)NC(=O)[C@@H](N)C(C)C)[C@@H](C)CC)C(C)C)C(C)C)C(=O)N[C@@H](Cc1c[nH]c2ccccc12)C(=O)N[C@@H](CCCNC(=N)N)C(=O)N[C@@H](CCCNC(=N)N)C(N)=O` [Peptide 2001] (H-VRLIVKVRIWRR-NH2; N-terminus assumed), in the assay with P. aeruginosa biofilm (setting [3]), the “MBIC50 P. aeruginosa” value was determined as 2.5 µg/mL. The “MBIC50 S. aureus” value in the assay on S. aureus biofilm (setting [3]) is 10 µg/mL. Further, in assay [1], the “Fold increase” value is reported as 765 and the “MCP1” value was determined as 16300 pg/mL. Moreover, the “Fold change in IL1β relative to no peptide LPS stimulated cells” value in assay [2] came to 0.08. The “IL1β Production” value in assay [2] (setting [4]) turned out to be 76 pg/mL.
